Values quoted from earlier work in patent US20090318550A1, “Emulsions comprising at least one retinoid and benzoyl peroxide” (GALDERMA RESEARCH & DEVELOPMENT, priority 2006, published 2009).
Where two headings read alike, the source gives them in different places. Values belong to the molecule of their own block, whether it stands above or below them.

What was measured:
[1] = in presence of benzoyl peroxide formulation
[2] = for Decomposition time: 40° C.

- Decomposition of the retinoid ([1]; 2 hours): 50%
- Decomposition of the retinoid ([1]; 4 hours): 95%
SMILES: CC1=C(/C=C/C(C)=C/C=C/C(C)=C/C(=O)O)C(C)(C)CCC1 [tretinoin]

- Decomposition time ([2]; in solution in PEG 400 (0.5 mg/g)): 1.4 days
- Decomposition time ([2]; in solution in ethanol): 29 days
- Decomposition time ([2]; in solution in propylene glycol): 53 days
- Decomposition in suspension (dispersed form) ([2]; in water and propylene glycol, storing for 90 days): not decomposed
SMILES: O=C(OOC(=O)c1ccccc1)c1ccccc1 [benzoyl peroxide]

- Decomposition of the retinoid ([1]; during 24 hours): no decomposition
SMILES: COc1ccc(-c2ccc3cc(C(=O)O)ccc3c2)cc1C12CC3CC(CC(C3)C1)C2 [adapalene, 6-(3-(1-adamantyl)-4-methoxyphenyl)-2-naphthoic acid]
